Results taken from patent publication US20060172418A1, “Hypercoiling polymers and their use in cellular delivery” (priority 2002, published 2006).
“Also recorded” adds a separate entry of the source. Read-outs that look alike come from different tables or passages of the source.

Assays:
[1] = Spectrophotometric titration with HCl; format: physicochemical; conditions: read-out: pKa of the bis-amino groups
Procedure: Aqueous solutions of polymers were titrated by with 1.0 N HCl delivered to an Aminco-SDP-125 spectrofluorimeter, equipped with a flow through cell, from a titration vessel, via a peristaltic pump.
Spectrophotometric titrations were carried out for a mixture of poly(L-lysine iso-phthalamide) at a concentration of 0.5 g/l and free bis-amino Cy3 at a fluorophore concentration of 0.26 mM (0.1 g/l), which yields the maximum emission intensity for this polymer/fluorophore combination.

[2] = system: CHO cells; assay: Uptake and internalisation of PD30 (LSCM); format: cell-based, Chinese hamster; conditions: pH 7.4, 37° C., 30 minutes; PD30 1 mg/mL, free dyes 0.01 mg/mL
Procedure: (§1) CHO or HepG2 cells (80,000 cells/mL) were seeded into Willco dishes and incubated overnight (24 hours) at 37° C. in a humidity controlled incubator in an air atmosphere supplemented with 5% CO2.
(§2) The cells were then washed three times with 2 mL D-PBS (Sigma, Poole, Dorset, UK) to remove excess serum. 2 mL of PD30 at a concentration of 1 mg/mL in D-PBS (pH 7.4) was added, and the cells incubated for 10 minutes at 37° C. in a humidity controlled incubator in an air atmosphere supplemented with 5% CO2.
(§3) Controls were prepared similarly, by the addition of 2 mL of bis-amino Cy3 at a concentration of 0.01 mg/mL in D-PBS (pH 7.4), or 2 mL of bis-sulphonic acid Cy3 at a concentration of 0.01 mg/mL in D-PBS (pH 7.4), followed by incubation for 10 minutes at 37° C. in a humidity controlled incubator in an air atmosphere supplemented with 5% CO2.
(§4) Laser Scanning Confocal Microscopy (LSCM) images were then obtained at 10 minute intervals, using an Olympus FV300 LSCM (Department of Chemical Engineering, University of Cambridge, Cambridge, Cambridgeshire, UK). The cells remained on the microscope for the duration of the imaging experiments.

[3] = system: HepG2 cells; assay: Uptake and internalisation of PD30 (LSCM); format: cell-based, Human; conditions: pH 7.4, 37° C., 30 minutes; PD30 1 mg/mL, bis-amino Cy3 0.01 mg/mL
Procedure: as §1, §2, §3, §4

[4] = system: MCF7/MXR cells; assay: Polymer-conjugated doxorubicin uptake (flow cytometry); format: cell-based, human; conditions: 2 mM doxorubicin or equivalent; for uptake into cells: serum-free medium
Procedure: (§5) Control solutions, containing polymer (with no doxorubicin) and medium alone were also prepared. […] Samples (1 mL) of each test solution were placed in Eppindorf centrifuge tubes and placed in an incubator at 37° C. under a 5% CO2 atmosphere. 2×10^6 cells of each type were suspended in 300 μL of cell culture media (10% foetal calf serum, 2 mM L-Glutamine, 100 U/mL penicillin and 100 μg/mL streptomycin) and incubated at 37° C. under a 5% CO2 atmosphere. The study was initiated by adding 10 μL of cells to each test sample. After selected exposure times, the cells were pelleted by centrifuge and placed on ice. The cells were then re-suspended in phosphate buffer and analysed using a flow cytometer gated to count […] (approximately 10% of the total cell count). A histogram of fluorescence intensity vs. number of events, and the median value of fluorescence intensity, was recorded for each sample. Background fluorescence for cells alone, or for cells with DMSO, was subtracted from the corresponding test samples.

[5] = system: MCF7 cells; assay: as above; format: cell-based, human; conditions: 2 mM doxorubicin or equivalent; for uptake into cells: serum-free medium
Procedure: as §5

[6] = system: MCF7/MXR cells; conditions: 5 days
Procedure: (§6) Subsequently, a standard MTT (3-(4,5-dimethylthiazol-2-yl)-2,5-diphenyl-2H-tetrazolium bromide) assay was performed in order to assess cell viability.
(§7) The total DMSO concentration was adjusted to 1% by volume, and the cells incubated at 37° C. under a 5% CO2 atmosphere for 5 days. […] Subsequently, a standard MTT assay was performed in order to assess cell viability.

[7] = system: MCF7 cells; conditions: 5 days
Procedure: as §6, §7

[8] = at 25° C.; cited from earlier work
[9] = system: HepG2 cells; assay: Co-localisation of PD20 with FITC-Alexa Fluor 488; format: cell-based, Human; conditions: 1 mg/mL, 15 minutes, pH 7.4
Procedure: HepG2 cells (80,000/mL) were seeded into WilCo dishes, and incubated overnight (24 hours) at 37° C. in a humidity controlled incubator in an air atmosphere supplemented with 5% CO2.
The HepG2 cells were then incubated for a period of 15 minutes with a mixture of PD20 at a concentration of 1 mg/mL and the endosomal labelling fluorophore FITC-Alexa Fluor 488 (Cambridge Biosciences, Cambridge, UK) at a concentration of 50 μg/mL in serum free medium (Dulbecco's Modified Eagle Medium, DMEM) appropriate for HepG2 cells (total volume 2 mL) at pH 7.4.
The supernatant was then removed and the cells washed three times with 2 mL DMEM. 2 mL of fresh D-PBS was added to each dish and the CHO cells were then imaged on a Zeiss LSM410 confocal microscope (λex 535 nm, λem 570 nm for PD20, λex 495 nm, λem 518 nm for FITC Alexa Fluor 488) (Amersham Biosciences, Cardiff, UK).

[10] = system: CHO cells; assay: Interaction of PD20 with CHO cells at pH 7.4 and pH 5.5 (fluorescence microscopy); format: cell-based, Chinese hamster; conditions: 30 minute incubation at 37° C.
Procedure: A 2 mL suspension of CHO cells (10^5 cells/mL) was seeded into WilCo dishes (Intracel, Royston, UK) and incubated overnight (24 hours) at 37° C. in a humidity controlled incubator in an air atmosphere supplemented with 5% CO2.
The CHO cells were then washed three times with 100 μl of D-PBS (Sigma, Poole, Dorset, UK) to remove excess serum. 2 mL of PD20 (1 mg/mL) in D-PBS (Sigma, Poole, Dorset, UK) at pH 7.4 or titrated to pH 5.5 with 0.1 M HCl was then added to the Willco dishes.
The dishes were incubated for 30 minutes, the PD20 removed (by aspiration) and the cells washed three times with 2 mL D-PBS (Sigma, Poole, Dorset, UK) adjusted to pH 7.4 or pH 5.5 with 1.0 M HCl.
The CHO cells were then re-suspended in 2 mL of D-PBS at pH 7.4 or titrated to pH 5.5 with 0.1 M HCl and fluorescent photomicrogram images obtained on a Laser Scanning Confocal Zeiss LSM410 microscope (λex 535 nm, λem 570 nm) with a ×20 magnification lens (Amersham Biosciences, Cardiff, UK).
Phase contrast images of the CHO cells were obtained on the same microscope in non-fluorescence mode.

[11] = system: CHO cells; assay: Interaction of PD20 with CHO cells at pH 7.4, 6.0 or 5.0 (confocal time course); format: cell-based, Chinese hamster
Procedure: CHO cells (80,000/mL) were seeded into WilCo dishes and incubated overnight (24 hours) at 37° C. in a humidity controlled incubator in an air atmosphere supplemented with 5% CO2.
The CHO cells were then washed three times with 2 mL D-PBS (Sigma, Poole, Dorset, UK) to remove excess serum and incubated with 2 mL PD20 (1 mg/mL) in serum-free medium (F12 Nutrient Ham Mixture, Sigma, Poole, Dorset, UK) titrated to pH 7.4, 6.0, or 5.0 with 0.1 M HCl.
The CHO cells were then incubated for 10 minutes and washed three times with 2 mL D PBS (pH 7.4, 6.0, or 5.0). 2 mL of fresh D-PBS at the required pH (pH 7.4, 6.0, or 5.0) was added to each dish and the CHO cells were then imaged on a Zeiss LSM410 confocal microscope (Amersham Biosciences, Cardiff, UK) for 1 hour at 10 minute intervals (to reduce photobleaching and cell exposure to the laser). The cells were maintained at 37° C. on an integral heater stage.
The confocal microscope images were quantified using Metamorph™ software to give the fluorescence intensity.

Compound	subcellular localisation after uptake [2]	nuclear staining [3]	subcellular localisation after uptake [3]	effect of 1% DMSO on uptake [4]	uptake into cells [4]	effect of 1% DMSO on uptake [5]	uptake into cells [5]	further results
CCN1/C(=C/C=C/C2=[N+](CC)c3ccc(CN)cc3C2(C)C)C(C)(C)c2cc(CN)ccc21 [bis-amino Cy3, reference compound]	localised in the endosome	No nuclear staining	localised in the endosome	–	–	–	–	pKa [1]: 9.5
COc1cccc2c1C(=O)c1c(O)c3c(c(O)c1C2=O)C[C@@](O)(C(=O)CO)C[C@@H]3O[C@H]1C[C@H](N)[C@H](O)[C@H](C)O1 [doxorubicin, reference compound]	–	–	–	significantly enhances	taken up into cells	significantly enhances	taken up into cells	cytotoxic effect ([6]; 1% by volume of DMSO): significant cytotoxic effects; cytotoxic effect ([6]; without DMSO): significant cytotoxic effects; cytotoxic effect ([7]; 1% by volume of DMSO): significant cytotoxic effects; cytotoxic effect ([7]; without DMSO): significant cytotoxic effects
NCCCC[C@H](N)C(=O)O [lysine]	–	–	–	–	–	–	–	pKa [8]: about 2.18
Poly(L-lysine-co-Cy3-iso-phthalamide) [PD20]	–	–	–	–	–	–	–	co-localisation with endosomal stain FITC-Alexa Fluor 488 [9]: uptake of the PD20 into the endosomal compartment; adsorption onto the extracellular membrane of CHO cells ([10]; pH 5.5, 1 mg/mL): extensive adsorption; adsorption onto the membrane of CHO cells ([10]; pH 7.4, 1 mg/mL): weakly adsorbed; initial relative fluorescence intensity of cells at pH 6.0 and pH 5.0 versus pH 7.4 ([11]; 1 mg/mL): more than three times larger; time at which fluorescence intensity peaked ([11]; pH 5.0, 1 mg/mL): 20 min; time at which fluorescence intensity peaked ([11]; pH 6.0, 1 mg/mL): 30 min; relative fluorescence intensity of the cells with time ([11]; pH 7.4, 1 mg/mL): gradual increase
Poly(L-lysine-co-Cy3-iso-phthalamide) [PD30]	localised in the nucleus	heavy staining in the nucleus; also recorded: extensive nuclear staining	localised in the nucleus	–	–	–	–	nuclear staining [2]: heavily stained; also recorded: clearly associated with the nucleus
poly(lysine iso-phthalamide-co-lysine DOX iso-phthalamide) [polymer-conjugated doxorubicin]	–	–	–	little effect	taken up into cells	little effect	taken up into cells	–
